Measured values from US9657059B2, “Immune system modulators” (Canimguide Therapeutics AB, priority 2013, dated 2017).

Tests used:
[1] = tested on: PBMCs from a healthy control; test: PBMC activation (CD69, CD71) by flow cytometry in RPMI plus 10% human AB serum; assay type: cell-based; conditions: 40 μg/mL; for PBMC activation, cells with enhanced CD69: 24 hours
Experimental: FIG. 41 is a series of graphs illustrating effects of modified peptides on activation of PBMCs from healthy control person. PBMCs were incubated with the peptides (40 μg/mL) for 24 hours in RPMI plus 10% human AB serum. Activation is determined as percentage of cells with enhanced marker CD69 using flow cytometry. FIG. 41A illustrates results of two experiments (410 and 412) performed for each peptide. FIG. 41B illustrates results of two experiments (414 and 416) performed for each peptide.
FIG. 42 is a series of graphs illustrating effects of the full length peptide P28R and the 6 amino acid central sequence (32230, FFVKLS, SEQ ID NO: 62) in culture medium containing normal human AB serum. Activation is determined as percentage of cells with enhanced marker CD69 or CD71 using flow cytometry. PBMCs were incubated with the peptides (40 μg/mL) for 24 hours in RPMI plus 10% human AB serum. FIG. 42A illustrates the results of two experiments (420 and 422) performed for each peptide. FIG. 42B illustrates the results of two experiments (424 and 426) performed for each peptide.
FIG. 46 is a series of graphs illustrating Effect of modified peptides on activation of PBMCs from healthy control person. […] PBMCs were incubated with the peptides (40 μg/mL) for 48 hours in RPMI plus 10% human AB serum.
Based on the positional scan data, it is contemplated that substitutions of SEQ ID NO: 2 can be useful in accordance with some embodiments herein for binding P3028, de-blocking the LFA-1 receptor from P3028-mediated inhibition (e.g. displacing bound P3028 peptide and P3028-structure containing molecules from the LFA-1 receptor), and/or stimulating immune cells. The activity of peptide P28R (SEQ ID NO: 2) and modifications of P28R was studied in a human ex vivo model using PBMCs from a healthy control human in short term cultures, and with PBMC activation measured as a percentage of cells with enhanced CD69 (see Example 37).
As P28R (SEQ ID NO: 2) can bind to P3028 and stimulate PBMC's from healthy controls in short term cultures, for example when in a culture medium comprising RPMI plus 10% normal human AB serum (see Example 37), it is contemplated that truncations of P28R in accordance with some embodiments herein can be useful for binding to inhibitors of any one or more of the peptides listed in Tables 1-4. Truncations of P28R were assessed for their ability to activate PBMC's (see Example 38). PBMCs were incubated with the peptides (40 μg/mL) for 24 hours in RPMI plus 10% human AB serum. PBMC activation was measured as percent cells with enhanced expression of either CD69 (FIG. 42A) or CD71 (FIG. 42B) using flow cytometry. […] However, PBMCs were also incubated with the peptides in cancer sera from dogs, or in caner sera from human cancer patients (see FIG. 43). […] As such, it is contemplated that in accordance with some embodiments herein, P28R, P28 core, or combinations of these peptides are useful for stimulating immune cells in the serum of a subject that has cancer.
Effects of modified peptides on the activation of PBMCs from a healthy control person were assessed (see Example 41). PBMCs were incubated with the peptides (40 μg/mL) for 48 hours in RPMI plus 10% human AB serum, and PBMC activation was determined by flow cytometry based on the percentage of cells with enhanced marker CD69 or CD71. Peptides P28R (SEQ ID NO: 2), P28 core (peptide 32230) (SEQ ID NO: 62), 32251 ([…]) (SEQ ID NO: 592), 32814 ([…]) (SEQ ID NO: 586), 32815 ([…]) (SEQ ID NO: 595), 32665 ([…]) (SEQ ID NO: 593), and 32819 ([…](C(PEG24))) (SEQ ID NO: 594) were tested. […] Accordingly, it is contemplated herein that

PBMCs = test: PBMC activation (CD69/CD71, flow cytometry) in RPMI plus 10% human AB serum; assay type: cell-based; conditions: healthy control person, 40 μg/mL; for PBMC activation, cells with enhanced CD69: 24 hours
Experimental: The activity of peptide P28R (SEQ ID NO: 2) and modifications of P28R was studied in a human ex vivo model using PBMCs in short term cultures, 24 or 48 hours. Effects of P28R and modifications of P28R on PBMC's from a healthy control person were studied. Activation was measured as percentage of cells with enhanced marker CD69 using flow cytometry. PBMCs were incubated with the peptides (40 μg/mL) for 24 hours in RPMI plus 10% human AB serum.
As observed in Example 37, P28R (SEQ ID NO: 2) can stimulate PBMC's from healthy controls in short term cultures when RPMI plus 10% normal human AB serum is used as culture medium. Truncations of P28R were also assessed for their ability to activate PBMC's. PBMCs were incubated with the peptides (40 μg/mL) for 24 hours in RPMI plus 10% human AB serum. PBMC activation was measured as percent cells with enhanced expression of either CD69 (FIG. 42A) or CD71 (FIG. 42B) using flow cytometry. Two experiments were performed for each peptide.
Effects of modified peptides on activation of PBMCs from healthy control person were assessed. Activation was determined as percentage of cells with enhanced marker CD69 or CD71 using flow cytometry. PBMCs were incubated with the peptides (40 μg/mL) for 48 hours in RPMI plus 10% human AB serum.

P3028 (SEQ ID NO: 185) = P3028 (SEQ ID NO: 185) (Homo sapiens, UniProt P02768); test: PEPSCAN (rampo) ELISA: binding of His-tagged P3028 to P28R variants on chip
Experimental: Based on the structure of peptide P28R, additional peptides were identified that bind to P3028. The additional binders included deletions, truncations, and or amino acid substitutions of peptide P28R. Binding of peptides to P3028 was assayed using PEPSCAN technology. PEPSCAN technology, or “rampo” assays are biochemical binding assays, details of which are provided below:
A peptide microarray screening technology was used to measure binding of P28R (SEQ ID NO: 2) and variants of P28R to P3028 (SEQ ID NO: 185). In this technology libraries of synthetic peptides are synthesized and covalently linked onto polypropylene microarray chips. The linear peptides were synthesized onto credit-card format polypropylene cards (455 peptide formats/card) as described by (Timmerman et al., 2004) using standard Fmoc-chemistry using hexamethylenediamine (HMDA) as linker and deprotection using trifluoroacetic acid (TFA) with scavengers.
The binding of His-tagged P3028 to each peptide on the card was tested in an ELISA assay. The 455-well credit card format polypropylene cards containing the covalently linked peptides were incubated with His-tagged P3028 peptide (PGE73) solution consisting of 0.5 μg/mL diluted in blocking solution (4% horse serum, 5% ovalbumin (w/v) in PBS/1% TWEEN reagent). After washing, the peptides were incubated with a monoclonal mouse anti-His-tag antibody (Novagen, 70796-3, diluted 1/1000 in the incubation buffer) and subsequently after washing with a rabbit-anti-mouse antibody peroxidase (Rampo) conjugate (Southern Biotech, 6175-05, diluted 1/1000), for one hour at 25° C. After washing, the peroxidase substrate 2,2′-azine-di-3-ethylbenzthiazoline sulfonate (ABTS) and 2 μL of 3% H2O2 were added. The binding capacity of the mAb was measured as a color development at 405 nm (optical density, OD405). The color development was quantified with a charge-coupled device (CCD)—camera and an image processing system.
The OD405-values obtained by a CCD-camera was considered as raw data values (“rampo values,” “rampo units,” or “rampo scores”). The values mostly ranged from 0 to 3000, a log scale similar to 1 to 3 of a standard 96-well plate ELISA-reader. First the CCD-camera made a picture of the card before peroxidase coloring and then again a picture after the peroxidase coloring. […] These values were copied into an excel file and labeled as a raw data file. One follow-up manipulation was allowed. Sometimes a well can contain an air-bubble resulting in a false-positive value. If manual inspection of the cards detect an air-bubble the value are set to 0 for that well.
A library of peptides tested for binding to peptide P3028 included all substitutions for each position of the peptide P28R (SEQ ID NO: 2) (i.e., 19 substitutions for each position). The results of the binding experiments are shown in FIGS. 27, 28, 29 and 30 and Table 5.1. […] P28R had rampo values ranging between 262 and 460 with a mean value of 370. […] In addition, M and S in position 7 (SEQ ID NOs: 9 and 10, respectively), and Q and M in position 11 (SEQ ID NOs: 15 and 16, respectively) all have rampo values over 700.
For each position of P28R, the rampo scores of the group of 19 different peptides containing an L-amino acid substitution were compared to the rampo score of a control sample P28R peptide (SEQ ID NO: 2) for that group. Single-amino acid substitutions having a rampo score greater than or substantially equivalent to P28R were identified. […]

P3028 = P3028 (Homo sapiens, UniProt P02768); test: PEPSCAN rampo assay: binding of P3028 to support-bound peptides, sandwich ELISA; conditions: binding of P3028 to peptide on solid phase
Source text: Based on the ability of P28R to bind the P3028 sequence/structure, unblock the LFA-1 receptor, and ameliorate the P3028 sequence/structure-dependent immunosuppression, P28R was used as a template compound to identify additional compounds that bind to and sequester P3028. Variants of the P28R structure were synthesized, and tested for the ability to bind P3028 using PEPSCAN technology (see Example 12). A library of peptides that include each genetically-coded amino acid substitution at each amino acid position of P28R (i.e., 19 substitutions for each position) was synthesized. Each peptide was affixed to a support pin, and the peptide library was incubated with P3028. The binding of the candidate inhibitors to P3028 was detected by a sandwich ELISA, where a rabbit anti-mouse peroxidase (rampo) secondary antibody was employed (see Example 12). The binding of each peptide was then assigned a rampo score (see FIG. 27). Peptide P28R had rampo values ranging between about 262 and 460 with a mean value of 370. In some embodiments, the immunoregulatory peptide inhibitor as disclosed herein, is selected for a desired P3028 binding rampo score. In some embodiments, the desired P3028 binding rampo score is greater than or equal to the rampo score of P28R. It is also contemplated that some peptides that bind to P3028 with less affinity than P28R have therapeutic application. Some peptides with binding affinities that are less than P28R, for example, may modulate signal transduction events differently than P28R by virtue of the fact that the affinity to P3028 is less. […] Accordingly, contemplated embodiments include peptides that bind with any affinity to P3028 (e.g., any one or more of the peptides provided in Table 5.1, preferably peptides that modulate the immune system (e.g., modulate, upregulate or down regulate a marker of the immune system or immunosuppression, such as reducing a P3028-mediated inhibition of immune cell proliferation, spreading, migration, or NK-cell cytotoxicity).
It is contemplated that inhibitors of any one or more of the peptides listed in Tables 1-4 can comprise modifications of the P28R (SEQ ID NO: 2) or P28 core (SEQ ID NO: 62) sequence, and further can be useful for reducing inhibition of the LFA-1 receptor, or for stimulating immune cells. To identify modification to inhibitor peptides in accordance with some embodiments herein, positional scan data was used to study the influence of substitution of different types of amino acids in each position of P28R (SEQ ID NO: 2) on the binding of P3028 (SEQ ID NO: 185). Each amino acid in the peptide sequence of P28R (SEQ ID NO: 2) was exchanged with all of the naturally occurring amino acids, and binding of P3028 (SEQ ID NO: 185) to each peptide on a solid phase chip was assessed (see, e.g. Example 36). A number of optional modifications to P28R in accordance with embodiments herein are summarized in Tables 5.3, 5.4, 5.5, 5.6, and 13. Optionally, an inhibitor peptide in accordance with some embodiments herein can comprise one or more of the modifications of Table 5.3 or Table 13. Optionally, an inhibitor peptide comprises a central core of positions 2, 5-11, and 15 as provided in Table 5.3, and the remaining position are omitted or substituted with substantially any amino acid. Optionally, an inhibitor peptide comprises a central core of positions K2, T5-S11, and E15 of SEQ ID NO: 2, and the remaining position are omitted or substituted with substantially any amino acid.
Embodiments of the invention also include immunoregulatory peptide inhibitors that have a specific affinity to P3028 sequences or structures. In some embodiments, the immunoregulatory peptide inhibitors have specific affinity to P3028 sequences or structures as measured by a rampo assay in which the immunoregulatory peptide inhibitors are affixed to a solid phase, P3028 is added, and the enzymatic activity of a rampo secondary antibody is measured so as to detect binding (see Example 12). […]

## KKLDTVMVKLQLMTER [compound 30680]
[1]
  PBMC activation, cells with enhanced CD69: did not stimulate
PBMCs
  PBMC activation, cells with enhanced CD69: induced activation of PBMCs

## KKLDTFFVYLSLFTER [compound 31135]
[1]
  PBMC activation, cells with enhanced CD69: directly stimulate
PBMCs
  PBMC activation, cells with enhanced CD69: also stimulated immune cells

## 391 (KKLDTFFVKLSLFTER) [compound 391]
P3028 (SEQ ID NO: 185); binding of His-tagged P3028 0.5 μg/mL to chip-bound peptide, OD405 raw value
  RAMPO Score: 260
P3028
  RAMPO Score: 366

## KKLDTFFVKLSFTER [SEQ ID NO: 68]
P3028 (SEQ ID NO: 185); truncations, deletions, glycine substitutions (FIG. 29, 30)
  rampo score / binding to P3028 compared with P28R: comparable to, or higher than peptide P28R

## RKLDTFFVKLSLFTERRR [compound 32814]
[1]; 48 hours
  PBMC activation, cells with enhanced CD69 and CD71: stimulatory effect in short term cultures similar to that of P28R
PBMCs; 48 hours
  PBMC activation, enhanced CD69 or CD71: stimulatory effect in short term cultures similar to that of P28R
